Data as given in patent US10017475B2, “Anti-vasculature and anti-tubulin combretastatin analogs for treatment of cancer” (XAVIER UNIVERSITY OF LOUISIANA, priority 2014, dated 2018).
“Also recorded” adds a separate entry of the source. Where two headings read alike, the source gives them in different places.

Experiments:
bovine brain tubulin = test: Tubulin polymerization assay; conditions: compared to vehicle (DMSO)
Experimental: It is based on the principal that light is scattered by microtubules to an extent that is proportional to the concentration of the microtubule polymer. Compounds that interact with tubulin will alter the polymerization of tubulin, and this can be detected using a spectrophotometer. The absorbance at 340 nm at 37° C. is monitored. The experimental procedure of the assay was performed as described in version 8.2 of the tubulin polymerization assay kit manual. Varying concentrations of compounds were preincubated with 10 μM bovine brain tubulin in glutamate buffer at 30° C. and then cooled to 0° C. After the addition of 0.4 mM GTP, the mixtures were transferred to 0° C. cuvettes in a recording spectrophotometer and warmed to 30° C. Tubulin assembly was followed turbidimetrically at 350 nm.
The reaction was initiated by the addition of tubulin to a final concentration of 3.0 mg/mL

MDA-MB-231 cells [1] = test: Immunofluorescence of interphase microtubules; type: cell-based, human; conditions: 1 μM, 24 h
Experimental: (§1) MDA-MB-231 and HeLa cells were grown on a Laboratory-Tek chamber slide (VWR International, Radnor, Pa.) and treated with vehicle (DMSO) or 1 μM CA-4 or 4h for 24 hours to 4 days. At the completion of treatment, cells were fixed with 3.7% formaldehyde and permeabilized with 0.1% Triton X-100 in PBS for 4 min. The cells were first incubated for 1 h in a solution of PBS containing 1% BSA and calf serum to block nonspecific antibody binding. The cells were then incubated with the mouse anti-tubulin antibody (1:200) (Life Technologies, Grand Island, N.Y.), washed 3 times in PBS containing 1% BSA and incubated for 2 h at room temperature with secondary goat antimouse antibody Alexa 488 labeled (1:200) for tubulin staining. The chamber slides were examined and photographed using a Nikon ES800 fluorescence microscope with a digital camera.
(§2) To determine the microtubule disrupting effects of the pyridine-linked analogs, compound 4h was selected as a representative compound in a cell-based phenotypic screening. HeLa and MDA-MB-231 cells were used to examine the effect of 4h on the reorganization of microtubules during mitosis. Cells were treated with either 4h or CA-4 for 24 h, and microtubules were visualized by indirect immunofluorescence techniques. An antibody for β-tubulin was used to visualize interphase and mitotic microtubule structures.
(§3) At FIG. 37 the effects of CA-4 and 4h on interphase microtubules are shown. MDA-MB-231 and HeLa cells were treated with vehicle (A, D) or 1 μM compounds (B, C and E, F) as indicated for 24 hours. Cells were then fixed and microtubules visualized by indirect immunofluorescence techniques. Normal interphase microtubules are visible in the control cells of HeLa and MDA-MB-231. The loss of interphase microtubules induced by CA-4 and 4h is shown in respective treatments as labeled.

HeLa cells [2] = test: Immunofluorescence of interphase microtubules; type: cell-based, human; conditions: 1 μM, 24 h
Experimental: as §1, §2, §3

A549 = test: Antiproliferative assay (resazurin, 72 h); type: cell-based, human; conditions: A549, 72 h incubation, read-out: Growth Inhibition IC50 A549
Experimental: (§4) Cells were seeded in 96-well plates (5×10^3 cells/well) containing 50 μL growth medium for 24 hours. After medium removal, 100 μL fresh medium containing individual analog compound at different concentrations was added to each well and incubated at 37° C. for 72 h. […] After 72 h of incubation, 20 μL of resazurin was added for 2 h before recording fluorescence at 560 nm (excitation) and 590 nm (emission) using a Victor microtiter plate fluorimeter (Perkin-Elmer, USA).

HeLa = test: Antiproliferative assay (resazurin, 72 h); type: cell-based, human; conditions: 72 h incubation, read-out: Growth Inhibition IC50 HeLa
Experimental: as §4

MDA-MB-231 = test: Antiproliferative assay (resazurin, 72 h); type: cell-based, human; conditions: MDA-MB-231, 72 h incubation, read-out: Growth Inhibition IC50 MDA-MB-231
Experimental: as §4

[3] = tested on: chick embryo chorioallantoic membrane; test: Chick embryo chorioallantoic membrane (CAM) anti-angiogenesis assay; type: in vivo; conditions: for Angiogenesis score (scale 0-3) versus positive control BV (bFGF+VEGF): collagen onplant with bFGF+VEGF on CAM, four days
Experimental: Fertilized embryos were obtained from Charles River Laboratories and incubated at 37.5° C. for 3 days, removed from their shell using a Dremel tool and placed into a covered weighing boat for 10 further days of incubation. Solidified 30 µL onplants containing 2.1 mg/mL rat tail collagen (BD Biosciences, Bedford, Mass.) and 10 ng/mL bFGF and 30 ng/mL VEGF in the presence or absence of CA-4 and 4s were placed on the embryo chorioallantoic membrane (CAM) over two pieces of nylon mesh approximately 0.5 cm^2. Four collagen onplants were added per egg on at least 3 separate eggs. After four days of incubation, images were taken of each plug on surviving embryos using a mini-Vid camera (LW Scientific; Lawrenceville, Ga.) and quantified in a masked fashion on a scale from 0-3 with 0 representing no angiogenesis and 3 representing extreme angiogenesis. Data from one scorer (confirmed by a second scorer) are presented as the means±standard errors of the mean. Statistical significances were determined by one-way analysis of variance (ANOVA) followed by Dunnett's multiple comparison test (GraphPad Prism, La Jolla, Calif.).
In this test the vascular system of a fertilized chicken embryo is used as a model. […] The anti-angiogenesis activity of 4s and CA-4 were determined by the suppression of angiogenic action of BV (bFGF+VEGF) when the compound was added to a collagen containing BV and placed on the chorioallantoic membrane of […] chick embryos for four days. Angiogenesis was scored by two scorers in a blinded fashion.

MDA-MB-231 cells [4] = test: Cytofluorimetric analysis of cell cycle distribution; type: cell-based, human; conditions: 1 μM, 24 h
Experimental: Cells treated with tested compounds for 24 h were washed once in PBS and resuspended in 1 mL of 70% ice cold ethanol and stored at −20° C. Fixed cells were washed twice in PBS and then treated with 1 mL of 0.1 mg/mL of RNase. A solution at 37° C. for 1 h. DNA was then stained with a PBS solution containing 0.1 mg/mL propidium iodide for 30 min at room temperature in the dark. Cell cycle analysis was determined with Accuri C6 (BD Biosciences, Mountain View, Calif.).
Similar results were obtained when another metastatic cancer cell line, MDA-MB-231 was used to test the effect of these compounds on cell cycle arrest.

HeLa cells [5] = test: as above; type: cell-based, human; conditions: 1 μM, 24 h
Experimental: Cells treated with tested compounds for 24 h were washed once in PBS and resuspended in 1 mL of 70% ice cold ethanol and stored at −20° C. Fixed cells were washed twice in PBS and then treated with 1 mL of 0.1 mg/mL of RNase. […] DNA was then stained with a PBS solution containing 0.1 mg/mL propidium iodide for 30 min at room temperature in the dark. Cell cycle analysis was determined with Accuri C6 (BD Biosciences, Mountain View, Calif.).

Q: Which “Inhibition of tubulin polymerization” value (bovine brain tubulin; compound at 1 μM) does the source give for `COc1ccc(/C=C\c2cc(OC)c(OC)c(OC)c2)cc1O` [CA-4, Combretastatin A4, reference compound] here?
A: 35%

Q: And the “Inhibition of tubulin polymerization” value (bovine brain tubulin; compound at 10 μM)?
A: nearly completely blocked tubulin polymerization

Q: And the “Effect on interphase microtubule network” value (MDA-MB-231 cells [1])?
A: very similar loss of the microtubule network

Q: And the “Effect on interphase microtubule network” value (HeLa cells [2])?
A: very similar loss of the microtubule network

Q: And the IC50 (A549)?
A: 3.8 nM

Q: And the IC50 (HeLa)?
A: 0.9 nM

Q: And the IC50 (MDA-MB-231)?
A: 2.8 nM

Q: And the “Effect on new vessel growth” value ([3]; CAM, 4 days after treatment)?
A: inhibition of new vessel growth and vessel shrinkage

Q: And the “Angiogenesis score (scale 0-3) versus positive control BV (bFGF+VEGF)” value [3]?
A: scored significantly lower than the positive control

Q: What about the “Cell cycle distribution G0/G1” value (MDA-MB-231 cells [4]) of the same molecule?
A: 27.50%

Q: And the “Cell cycle distribution G2/M” value (MDA-MB-231 cells [4])?
A: 57.80%

Q: And the “Cell cycle distribution S” value (MDA-MB-231 cells [4])?
A: 11.80%

Q: What about the “Cell cycle distribution G0/G1” value (HeLa cells [5]) of the same molecule?
A: 37.00%

Q: And the “Cell cycle distribution G2/M” value (HeLa cells [5])?
A: 44.6%

Q: What about the “Cell cycle distribution S” value (HeLa cells [5]) of the same molecule?
A: 16.70%

Q: Which results are given for `COc1ccc(-c2cccc(-c3ccc(OC)cc3OC)n2)cc1` [Compound 4h, 2-(2,4-Dimethoxyphenyl)-6-(4-methoxyphenyl)pyridine]?
A: Inhibition of tubulin polymerization (bovine brain tubulin; compound at 1 μM, 1 µM): failed to inhibit tubulin polymerization; also recorded: slightly stimulating tubulin polymerization; Inhibition of tubulin polymerization (bovine brain tubulin; compound at 10 μM): remained ineffective against tubulin polymerization; Effect on interphase microtubule network (MDA-MB-231 cells [1]): dramatic reduction of the interphase microtubule network; Effect on interphase microtubule network (HeLa cells [2]): dramatic reduction of the interphase microtubule network; IC50 (A549; Homo sapiens, A549, 72 h): 89 nM; IC50 (HeLa; Homo sapiens, 72 h): 3.8 nM; IC50 (MDA-MB-231; Homo sapiens, MDA-MB-231, 72 h): 3.1 nM; Cell cycle distribution G0/G1 (MDA-MB-231 cells [4]): 13.10%; Cell cycle distribution G2/M (MDA-MB-231 cells [4]): 70.5%; Cell cycle distribution S (MDA-MB-231 cells [4]): 16.40%; Cell cycle distribution G0/G1 (HeLa cells [5]): 10.30%; Cell cycle distribution G2/M (HeLa cells [5]): 73.4%; Cell cycle distribution S (HeLa cells [5]): 15.40%

Q: Which results are given for `COc1ccc(-c2cccc(-c3ccc(OC)c(O)c3)n2)c(OC)c1` [Compound 4s, 5-(6-(2,4-Dimethoxyphenyl)pyridine-2-yl)-2-methoxyphenol]?
A: Inhibition of tubulin polymerization (bovine brain tubulin; compound at 1 μM): failed to inhibit tubulin polymerization; Inhibition of tubulin polymerization (bovine brain tubulin; compound at 10 μM): 57%; IC50 (A549; Homo sapiens, A549, 72 h): 44 nM; IC50 (HeLa; Homo sapiens, 72 h): 1.4 nM; IC50 (MDA-MB-231; Homo sapiens, MDA-MB-231, 72 h): 4.6 nM; Anti-angiogenesis activity compared with CA-4 ([3]; CAM, 4 days after treatment): more effective than CA-4 in suppressing new vessel growth; Effect on new vessel growth ([3]; CAM, 4 days after treatment): inhibition of new vessel growth and vessel shrinkage; Angiogenesis score (scale 0-3) versus positive control BV (bFGF+VEGF) [3]: scored significantly lower than the positive control; melting point: 142 to 144 °C; Cell cycle distribution G0/G1 (MDA-MB-231 cells [4]): 18.60%; Cell cycle distribution G2/M (MDA-MB-231 cells [4]): 54.1%; Cell cycle distribution S (MDA-MB-231 cells [4]): 17.10%; Cell cycle distribution G0/G1 (HeLa cells [5]): 12.10%; Cell cycle distribution G2/M (HeLa cells [5]): 70.6%; Cell cycle distribution S (HeLa cells [5]): 17.10%
